Measurements as given in patent EP4603105A1, “PHARMACEUTICAL COMPOSITION CONTAINING CYCLIC COMPOUND HAVING SELECTIVE KRAS INHIBITORY EFFECT AGAINST HRAS AND NRAS” (CHUGAI SEIYAKU KABUSHIKI KAISHA, priority 2022, dated 2024).
Where a SMILES comes first, the peptide text is derived from it. Bridges are numbered along the chain shown (N, C = ends). [ ]: non-standard residue; d: D form. hPhe(3-Cl-4-CF3) = N[C@@H](CCc1ccc(C(F)(F)F)c(Cl)c1)C(=O)O; NPrPhe(4-CF3) = CCCN[C@@H](Cc1ccc(C(F)(F)F)cc1)C(=O)O; NMeGly(cPent) = CN[C@H](C(=O)O)C1CCCC1; Pro(4,4-F2) = O=C(O)[C@@H]1CC(F)(F)CN1; Hyp = O=C(O)[C@@H]1C[C@@H](O)CN1; NMeL = CN[C@@H](CC(C)C)C(=O)O; Ac5c = NC1(C(=O)O)CCCC1; Ac4c = NC1(C(=O)O)CCC1; NEtG = CCNCC(=O)O; Sar = CNCC(=O)O

Assays:
[1] = molecular target: GDP-bound NRAS wild-type protein (Homo sapiens, UniProt P01111); experiment: Binding to NRAS by surface plasmon resonance (SPR), KD and KD ratio to KRAS; details: ratio of KD for GDP-bound NRAS wild-type protein to KD for KRAS
GDP-bound NRAS wild-type protein, sequence (P01111 whole entry): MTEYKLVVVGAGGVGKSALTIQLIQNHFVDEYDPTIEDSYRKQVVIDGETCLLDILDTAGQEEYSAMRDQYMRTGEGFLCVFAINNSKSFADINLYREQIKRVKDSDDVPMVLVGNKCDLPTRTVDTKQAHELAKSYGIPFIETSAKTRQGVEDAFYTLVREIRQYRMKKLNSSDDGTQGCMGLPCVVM
Summary of the method: (§1)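 Recombinant RAS proteins bearing a biotinylated Avi tag and loaded with GDP served as the captured ligand, recaptured fresh every cycle. Binding responses were referenced to an uncoated surface and a buffer-only blank cycle. Dissociation constants were obtained by 1:1 model fitting at 30°C.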

[2] = molecular target: HRAS wild-type protein (Homo sapiens, UniProt P01112); experiment: Binding to HRAS by surface plasmon resonance (SPR), KD and KD ratio to KRAS; details: ratio of KD for HRAS wild-type protein to KD for KRAS
HRAS wild-type protein, sequence (P01112 whole entry): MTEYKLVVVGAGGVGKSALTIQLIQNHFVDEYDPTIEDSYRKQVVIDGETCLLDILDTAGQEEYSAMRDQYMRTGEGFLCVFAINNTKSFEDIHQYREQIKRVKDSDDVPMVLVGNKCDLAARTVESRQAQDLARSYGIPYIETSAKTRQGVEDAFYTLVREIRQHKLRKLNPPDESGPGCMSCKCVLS
Summary of the method: as §1

[3] = test system: human lung cancer strain NCI-H441; type: cell-based
Summary of the method: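 Signal came from […] measured per well once the reagent was added. Beforehand, cells were cultured at 37°C and 5% carbon dioxide on a compound series serially diluted in dimethyl sulfoxide.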

Structure (SMILES) | NRAS /KRAS [1] | HRAS /KRAS [2] | IC50 [3] [nM]
CCCN1C(=O)CN(C)C(=O)CN(C)C(=O)[C@H]([C@@H](C)CC)NC(=O)[C@H](CC(C)C)N(C)C(=O)C[C@@H](C(=O)N(C)C)NC(=O)[C@H](C2CCCC2)N(C)C(=O)C2(CCC2)NC(=O)[C@@H]2C[C@@H](OCC)CN2C(=O)[C@H](CCc2ccc(C(F)(F)F)c(Cl)c2)NC(=O)CN(C)C(=O)[C@@H]1Cc1ccc(C(F)(F)F)cc1 [PP0360] ([NMeL]I[Sar][Sar][NPrPhe(4-CF3)][Sar][hPhe(3-Cl-4-CF3)][Hyp](Et)[Ac4c][NMeGly(cPent)]D-NMe2; lactam N-11) | B (a compound having 3 or more and less than 10 is denoted as B) | C (A compound having a KD ratio of 0.1 or more and less than 3 is denoted as C) | 18
CCCN1C(=O)CN(C)C(=O)CNC(=O)[C@H]([C@@H](C)CC)NC(=O)[C@H](CC(C)C)N(C)C(=O)C[C@@H](C(=O)N(C)C)NC(=O)[C@H](C2CCCC2)N(C)C(=O)C2(CCCC2)NC(=O)[C@@H]2CCCN2C(=O)[C@H](CCc2ccc(C(F)(F)F)c(Cl)c2)NC(=O)CN(C)C(=O)[C@@H]1Cc1ccc(C(F)(F)F)cc1 [PP0361] ([NMeL]IG[Sar][NPrPhe(4-CF3)][Sar][hPhe(3-Cl-4-CF3)]P[Ac5c][NMeGly(cPent)]D-NMe2; lactam N-11) | B (a compound having 3 or more and less than 10 is denoted as B) | C (A compound having a KD ratio of 0.1 or more and less than 3 is denoted as C) | 69
CCCN1C(=O)CN(C)C(=O)CNC(=O)[C@H]([C@@H](C)CC)NC(=O)[C@H](CC(C)C)N(C)C(=O)C[C@@H](C(=O)N(C)C)NC(=O)[C@H](C2CCCC2)N(C)C(=O)C2(CCC2)NC(=O)[C@@H]2CCCN2C(=O)[C@H](CCc2ccc(C(F)(F)F)c(Cl)c2)NC(=O)CN(C)C(=O)[C@@H]1Cc1ccc(C(F)(F)F)cc1 [PP0362] ([NMeL]IG[Sar][NPrPhe(4-CF3)][Sar][hPhe(3-Cl-4-CF3)]P[Ac4c][NMeGly(cPent)]D-NMe2; lactam N-11) | B (a compound having 3 or more and less than 10 is denoted as B) | B (a compound having 3 or more and less than 10 is denoted as B) | 149
CCCN1C(=O)CN(C)C(=O)CNC(=O)[C@H]([C@@H](C)CC)NC(=O)[C@H](CC(C)C)N(C)C(=O)C[C@@H](C(=O)N(C)C)NC(=O)[C@H](C2CCCC2)N(C)C(=O)C2(CCCC2)NC(=O)[C@@H]2CC(F)(F)CN2C(=O)[C@H](CCc2ccc(C(F)(F)F)c(Cl)c2)NC(=O)CN(C)C(=O)[C@@H]1Cc1ccc(C(F)(F)F)cc1 [PP0363] ([NMeL]IG[Sar][NPrPhe(4-CF3)][Sar][hPhe(3-Cl-4-CF3)][Pro(4,4-F2)][Ac5c][NMeGly(cPent)]D-NMe2; lactam N-11) | B (a compound having 3 or more and less than 10 is denoted as B) | C (A compound having a KD ratio of 0.1 or more and less than 3 is denoted as C) | 91.4
CCCN1C(=O)CN(C)C(=O)CNC(=O)[C@H]([C@@H](C)CC)NC(=O)[C@H](CC(C)C)N(C)C(=O)C[C@@H](C(=O)N(C)C)NC(=O)[C@H](C2CCCC2)N(C)C(=O)C2(CCC2)NC(=O)[C@@H]2CC(F)(F)CN2C(=O)[C@H](CCc2ccc(C(F)(F)F)c(Cl)c2)NC(=O)CN(C)C(=O)[C@@H]1Cc1ccc(C(F)(F)F)cc1 [PP0364] ([NMeL]IG[Sar][NPrPhe(4-CF3)][Sar][hPhe(3-Cl-4-CF3)][Pro(4,4-F2)][Ac4c][NMeGly(cPent)]D-NMe2; lactam N-11) | B (a compound having 3 or more and less than 10 is denoted as B) | B (a compound having 3 or more and less than 10 is denoted as B) | 103
CCCN1C(=O)CN(C)C(=O)CNC(=O)[C@H]([C@@H](C)CC)NC(=O)[C@H](CC(C)C)N(C)C(=O)C[C@@H](C(=O)N(C)C)NC(=O)[C@H](C2CCCC2)N(C)C(=O)C2(CCCC2)NC(=O)[C@@H]2C[C@@H](OCC)CN2C(=O)[C@H](CCc2ccc(C(F)(F)F)c(Cl)c2)NC(=O)CN(C)C(=O)[C@@H]1Cc1ccc(C(F)(F)F)cc1 [PP0365] ([NMeL]IG[Sar][NPrPhe(4-CF3)][Sar][hPhe(3-Cl-4-CF3)][Hyp](Et)[Ac5c][NMeGly(cPent)]D-NMe2; lactam N-11) | B (a compound having 3 or more and less than 10 is denoted as B) | B (a compound having 3 or more and less than 10 is denoted as B) | 42.6
CCCN1C(=O)CN(C)C(=O)CNC(=O)[C@H]([C@@H](C)CC)NC(=O)[C@H](CC(C)C)N(C)C(=O)C[C@@H](C(=O)N(C)C)NC(=O)[C@H](C2CCCC2)N(C)C(=O)C2(CCC2)NC(=O)[C@@H]2C[C@@H](OCC)CN2C(=O)[C@H](CCc2ccc(C(F)(F)F)c(Cl)c2)NC(=O)CN(C)C(=O)[C@@H]1Cc1ccc(C(F)(F)F)cc1 [PP0366] ([NMeL]IG[Sar][NPrPhe(4-CF3)][Sar][hPhe(3-Cl-4-CF3)][Hyp](Et)[Ac4c][NMeGly(cPent)]D-NMe2; lactam N-11) | B (a compound having 3 or more and less than 10 is denoted as B) | B (a compound having 3 or more and less than 10 is denoted as B) | 80.2
CCCN1C(=O)CN(C)C(=O)CN(CC)C(=O)[C@H]([C@@H](C)CC)NC(=O)[C@H](CC(C)C)N(C)C(=O)C[C@@H](C(=O)N(C)C)NC(=O)[C@H](C2CCCC2)N(C)C(=O)C2(CCCC2)NC(=O)[C@@H]2CCCN2C(=O)[C@H](CCc2ccc(C(F)(F)F)c(Cl)c2)NC(=O)CN(C)C(=O)[C@@H]1Cc1ccc(C(F)(F)F)cc1 [PP0367] ([NMeL]I[NEtG][Sar][NPrPhe(4-CF3)][Sar][hPhe(3-Cl-4-CF3)]P[Ac5c][NMeGly(cPent)]D-NMe2; lactam N-11) | B (a compound having 3 or more and less than 10 is denoted as B) | B (a compound having 3 or more and less than 10 is denoted as B) | 99.1
CCCN1C(=O)CN(C)C(=O)CN(CC)C(=O)[C@H]([C@@H](C)CC)NC(=O)[C@H](CC(C)C)N(C)C(=O)C[C@@H](C(=O)N(C)C)NC(=O)[C@H](C2CCCC2)N(C)C(=O)C2(CCC2)NC(=O)[C@@H]2CCCN2C(=O)[C@H](CCc2ccc(C(F)(F)F)c(Cl)c2)NC(=O)CN(C)C(=O)[C@@H]1Cc1ccc(C(F)(F)F)cc1 [PP0368] ([NMeL]I[NEtG][Sar][NPrPhe(4-CF3)][Sar][hPhe(3-Cl-4-CF3)]P[Ac4c][NMeGly(cPent)]D-NMe2; lactam N-11) | B (a compound having 3 or more and less than 10 is denoted as B) | B (a compound having 3 or more and less than 10 is denoted as B) | 115
CCCN1C(=O)CN(C)C(=O)CN(CC)C(=O)[C@H]([C@@H](C)CC)NC(=O)[C@H](CC(C)C)N(C)C(=O)C[C@@H](C(=O)N(C)C)NC(=O)[C@H](C2CCCC2)N(C)C(=O)C2(CCCC2)NC(=O)[C@@H]2CC(F)(F)CN2C(=O)[C@H](CCc2ccc(C(F)(F)F)c(Cl)c2)NC(=O)CN(C)C(=O)[C@@H]1Cc1ccc(C(F)(F)F)cc1 [PP0369] ([NMeL]I[NEtG][Sar][NPrPhe(4-CF3)][Sar][hPhe(3-Cl-4-CF3)][Pro(4,4-F2)][Ac5c][NMeGly(cPent)]D-NMe2; lactam N-11) | B (a compound having 3 or more and less than 10 is denoted as B) | C (A compound having a KD ratio of 0.1 or more and less than 3 is denoted as C) | 68.9
CCCN1C(=O)CN(C)C(=O)CN(CC)C(=O)[C@H]([C@@H](C)CC)NC(=O)[C@H](CC(C)C)N(C)C(=O)C[C@@H](C(=O)N(C)C)NC(=O)[C@H](C2CCCC2)N(C)C(=O)C2(CCC2)NC(=O)[C@@H]2CC(F)(F)CN2C(=O)[C@H](CCc2ccc(C(F)(F)F)c(Cl)c2)NC(=O)CN(C)C(=O)[C@@H]1Cc1ccc(C(F)(F)F)cc1 [PP0370] ([NMeL]I[NEtG][Sar][NPrPhe(4-CF3)][Sar][hPhe(3-Cl-4-CF3)][Pro(4,4-F2)][Ac4c][NMeGly(cPent)]D-NMe2; lactam N-11) | B (a compound having 3 or more and less than 10 is denoted as B) | C (A compound having a KD ratio of 0.1 or more and less than 3 is denoted as C) | 63.2
CCCN1C(=O)CN(C)C(=O)CN(CC)C(=O)[C@H]([C@@H](C)CC)NC(=O)[C@H](CC(C)C)N(C)C(=O)C[C@@H](C(=O)N(C)C)NC(=O)[C@H](C2CCCC2)N(C)C(=O)C2(CCCC2)NC(=O)[C@@H]2C[C@@H](OCC)CN2C(=O)[C@H](CCc2ccc(C(F)(F)F)c(Cl)c2)NC(=O)CN(C)C(=O)[C@@H]1Cc1ccc(C(F)(F)F)cc1 [PP0371] ([NMeL]I[NEtG][Sar][NPrPhe(4-CF3)][Sar][hPhe(3-Cl-4-CF3)][Hyp](Et)[Ac5c][NMeGly(cPent)]D-NMe2; lactam N-11) | B (a compound having 3 or more and less than 10 is denoted as B) | C (A compound having a KD ratio of 0.1 or more and less than 3 is denoted as C) | 30.9
CCCN1C(=O)CN(C)C(=O)CN(CC)C(=O)[C@H]([C@@H](C)CC)NC(=O)[C@H](CC(C)C)N(C)C(=O)C[C@@H](C(=O)N(C)C)NC(=O)[C@H](C2CCCC2)N(C)C(=O)C2(CCC2)NC(=O)[C@@H]2C[C@@H](OCC)CN2C(=O)[C@H](CCc2ccc(C(F)(F)F)c(Cl)c2)NC(=O)CN(C)C(=O)[C@@H]1Cc1ccc(C(F)(F)F)cc1 [PP0372] ([NMeL]I[NEtG][Sar][NPrPhe(4-CF3)][Sar][hPhe(3-Cl-4-CF3)][Hyp](Et)[Ac4c][NMeGly(cPent)]D-NMe2; lactam N-11) | B (a compound having 3 or more and less than 10 is denoted as B) | B (a compound having 3 or more and less than 10 is denoted as B) | 34.2
